Reference: US20060079558A1, “R-isomer of 2-{2[N-(2-indanyl)-N-phenylamino]ethyl}piperidine and other dermal anesthetics” (Bridge Pharma. Inc., priority 2004, published 2006)
“Also recorded” adds a separate entry of the source.

Legend:
[1] = cited from earlier work
[2] = Comparison studies of dermal toxicity; assay type: in vivo; details: in words
[3] = system: skin on the back of male or female guinea pigs; test: Dermal anesthetic activity, pin-prick method after dermal application; assay type: in vivo; details: for onset of dermal anesthetic activity (onset time): comparison of enantiomers and racemate, in words; for dermal anesthetic effects (anesthetic score): score after 30 min application, FIG. 1, 10% solution of base in water/DMSO, maximum = 6
Description: Approximately 18-24 hours before each experiment, the skin on the back of male or female guinea pigs was shaved and depilated with a commercially available hair remover. The anesthetic action of each agent following dermal application was determined using a “pin-prick” method as described by Aberg (Acta Pharmacol Toxicol, 1972, 31: 273-286). Before and at various intervals after treatment, the area of the skin was tested for the presence or absence of a skin twitch in response to six standardized dermal probings with a pointed metal “algesimeter” at a predetermined maximum load of 10 grams. The average number of probings not producing a skin twitch response was designated as the “anesthetic score”. In this test system no response to six stimuli represents a “maximal anesthetic activity”. In the present calculations, the dermal anesthetic activity was calculated from the time of removal of the test article formulation from the skin until skin twitch responses to all but one pinprick were identified. In experiments on the dermal anesthetic activity, a single area of skin 1 inch square was marked off on the middle of the back of each animal. This area was covered by a 1 inch square, 16 layer thick gauze pad onto which was deposited 0.45 ml of a 10% solution of the test agent dissolved in a mixture of water and DMSO. The gauze pad was covered with a 1.5 inch square sheet of Saran Wrap™ which was attached to the surrounding skin with tape. The entire area was then covered by wrapping an elastic bandage around the trunk of the animal. After a predetermined duration of treatment, the coverings were removed and the skin assessed for the presence of anesthesia as described above. Dermal anesthesia tests were performed at ten-minute intervals to measure onset time and duration of dermal anesthetic activity; comparisons were made with reference compounds and vehicle. All test compounds were in the base form and dissolved in DMSO/water when tested for dermal anesthesia.

| Compound | local anesthetic activity ([1]; racemate, U.S. Pat. No. 6,413,987) | tissue toxicity ([1]; racemic mixture, as described in U.S. Pat. No. 6,413,987) | dermal toxicity [2] | onset of dermal anesthetic activity (onset time) [3] | dermal anesthetic effects (anesthetic score) [3] |
| --- | --- | --- | --- | --- | --- |
| c1ccc(N(CCC2CCCCN2)C2Cc3ccccc3C2)cc1 (racemic) [RS-LAC-34, 2-{2-[N-(2-indanyl)-N-phenylamino]ethyl}piperidine] | active local anesthetic compound | little, if any, tissue toxicity |  |  |  |
| c1ccc(N(CC[C@H]2CCCCN2)C2Cc3ccccc3C2)cc1 [R-LAC-34, R-2-{2-[N-(2-indanyl)-N-phenylamino]ethyl}piperidine] |  |  | low dermal toxicity | shorter onset of action than both the racemate and the S-isomer; also recorded: significantly shorter; also recorded: shorter onset time than the racemic mixture or the S-isomer | 3.5 |
| c1ccc(N(CCC2CCCCN2)C2Cc3ccccc3C2)cc1 (stereo not shown) [S-LAC-34, reference compound] |  |  |  | longer onset of action | 2.6 |
